Results reported in the supplement of paper PMC10307832.

Columns and labels:
Test in all cases: relative viability (nuclei count vs DMSO), 5 days (fraction); higher = more cells survive
Ruxolitinib + Bortezomib = compound: N#CC[C@H](C1CCCC1)n1cc(-c2ncnc3[nH]ccc23)cn1 [Ruxolitinib] + CC(C)C[C@H](NC(=O)[C@H](Cc1ccccc1)NC(=O)c1cnccn1)B(O)O [Bortezomib] (partner 0.002 µM)
How it was run: (§1)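 A single step with final 0.05% Triton X-100, 1% formaldehyde and 1 ug/ml Hoechst fixed the cells and stained nuclei 5 days after treatment. Lung cancer cell lines in 1536-well plates had been treated by pin tool the day after seeding with one drug alone or a fixed anchor-drug dose plus five library-drug doses (not always all listed) in √10 steps, and nuclei were counted on 4× images. Relative viability is the ratio of nuclei in treated wells to nuclei in vehicle wells, taken as the median of duplicate plates.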

VE-821 + Linsitinib = compound: CS(=O)(=O)c1ccc(-c2cnc(N)c(C(=O)Nc3ccccc3)n2)cc1 [VE-821] + C[C@]1(O)C[C@@H](c2nc(-c3ccc4ccc(-c5ccccc5)nc4c3)c3c(N)nccn32)C1 [Linsitinib] (partner 1 µM)
How it was run: as §1

VE-821 + Pictilisib = compound: CS(=O)(=O)c1ccc(-c2cnc(N)c(C(=O)Nc3ccccc3)n2)cc1 [VE-821] + CS(=O)(=O)N1CCN(Cc2cc3nc(-c4cccc5[nH]ncc45)nc(N4CCOCC4)c3s2)CC1 [Pictilisib] (partner 1 µM)
How it was run: as §1

Vismodegib + Alpelisib = compound: CS(=O)(=O)c1ccc(C(=O)Nc2ccc(Cl)c(-c3ccccn3)c2)c(Cl)c1 [Vismodegib] + Cc1nc(NC(=O)N2CCC[C@H]2C(N)=O)sc1-c1ccnc(C(C)(C)C(F)(F)F)c1 [Alpelisib] (partner 2 µM)
How it was run: as §1

UMC-11
relative viability (Ruxolitinib + Bortezomib; first compound 0.08 µM): 0.696
relative viability (Ruxolitinib + Bortezomib; first compound 0.253 µM): 0.983
relative viability (Ruxolitinib + Bortezomib; first compound 0.8 µM): 0.929
relative viability (Ruxolitinib + Bortezomib; first compound 2.53 µM): 0.715
relative viability (Ruxolitinib + Bortezomib; first compound 8 µM): 0.706
relative viability (VE-821 + Linsitinib; first compound 0.08 µM): 1.14
relative viability (VE-821 + Linsitinib; first compound 0.253 µM): 1.03
relative viability (VE-821 + Linsitinib; first compound 0.8 µM): 1.06
relative viability (VE-821 + Linsitinib; first compound 2.53 µM): 1.04
relative viability (VE-821 + Linsitinib; first compound 8 µM): 0.533
relative viability (VE-821 + Pictilisib; first compound 0.08 µM): 0.933
relative viability (VE-821 + Pictilisib; first compound 0.253 µM): 0.781
relative viability (VE-821 + Pictilisib; first compound 0.8 µM): 0.613
relative viability (VE-821 + Pictilisib; first compound 2.53 µM): 0.84
relative viability (VE-821 + Pictilisib; first compound 8 µM): 0.4
relative viability (Vismodegib + Alpelisib; first compound 0.08 µM): 1.01
relative viability (Vismodegib + Alpelisib; first compound 0.253 µM): 1.01
relative viability (Vismodegib + Alpelisib; first compound 0.8 µM): 1.05
relative viability (Vismodegib + Alpelisib; first compound 2.53 µM): 0.957
relative viability (Vismodegib + Alpelisib; first compound 8 µM): 0.952
